From US9969692B2, “Process for preparing quinoline derivatives” (Exelixis, Inc., priority 2011, dated 2018)

Assay: Gravimetric vapor sorption (GVS) moisture adsorption desorption isotherm
Assay type: physicochemical
Details: 25° C. and 90% humidity
Description: A gravimetric vapor sorption (GVS) study was run using a standard procedure. Samples were run on a dynamic vapor sorption analyzer (Surface Measurement Systems) running DVSCFR software. Sample sizes were typically 10 mg. A moisture adsorption desorption isotherm was performed as outlined below. The standard isotherm experiment, performed at 25° C., is a two-cycle run, starting at 40% RH (relative humidity), increasing humidity to 90% RH, decreasing humidity to 0% RH, increasing humidity again to 90% RH, and finally decreasing humidity to 0% RH in 10% RH intervals.

weight gain (GVS): 2.5%
SMILES: COc1cc2c(Oc3ccc(NC(=O)C4(C(=O)Nc5ccc(F)cc5)CC4)cc3F)ccnc2cc1OCCCN1CCOCC1.O [crystalline Compound 1, N-[3-fluoro-4-({6-(methyloxy)-7-[(3-morpholin-4-ylpropyl)oxy]quinolin-4-yl}oxy)phenyl]-N′-(4-fluorophenyl)cyclopropane-1,1-dicarboxamide crystalline hydrate]
